One assay relates to HIV (CEM Cells). The experiment in a line: Cell Culture Anti-HIV Activity (formazan cell viability of HIV-infected CEM-SS cells). It counts as cell-based. The settings on record: Human immunodeficiency virus 1, CCRF-CEM, 144 h; CEM-SS cells infected with RF strain of HIV, multiplicity of infection 0.04, 6 days at 37° C.; concentration raising formazan production to 50% of uninfected cells. How it is done: The antiviral activity of the retrocarbamate protease inhibitors of the present invention was evaluated by a microculture method which determines the increase in cell viability of an infected culture when a drug is added. The assay depends on the metabolic reduction of tetrazolium reagent by viable cells to yield a soluble colored formazan product. The assay was performed as follows: suspensions of CEM--SS cells (5000/well) were infected with the RF strain of HIV at a multiplicity of infection at 0.04 in a 96-well plate. The compounds of the present invention listed in the following Table 1, serially diluted in half-log fashion, were added to the infected and uninfected control cells. Untreated (infected and uninfected) cells were included as controls. Following incubation for 6 days at 37° C., viable cells in each well were quantitated by the visible light absorbance at 450 nm. The IC50 was calculated as the concentration of drug that increased the formazan production in virally infected cells to 50% of that produced by uninfected cells in the absence of drug.

Another assay concerns the target T1, HIV protease (Human immunodeficiency virus type 1 group M subtype B, UniProt P04585).
T1 construct: purified protease
Kind of assay: HIV Protease Assay. The class given is biochemical. The note with it: 10 μM inhibitor, 4% DMSO, 450 μM substrate, pH 5.5, 30 minutes at 37° C. How it is done:
An HIV protease standard assay was performed in a 60 μl reaction medium containing 50 mM sodium acetate, pH 5.5, 100 μg/ml bovine serum, 450 μM substrate (H2 N-Val-Ser-Gin-Asn-( β-naphthyl-alanine)-Pro-Val-Ile-OH), and purified protease. The reaction medium was incubated for 30 minutes at 37° C., quenched by the addition of 140 μl 5% H3 PO4, then analyzed by reverse phase HPLC using UV220 detection. In a typical control assay, 7% of the substrate was hydrolyzed. The retrocarbamate protease inhibitors of the present invention, listed in the following Table 1, were then employed in the assay, for which purpose they were prepared as a […] solution in DMSO then diluted to 30 μM with 50 mM sodium acetate/bovine serum albumen. This working stock was then diluted three-fold into the protease reaction medium, for a final concentration of 10 μM inhibitor and 4% DMSO.

For the compound `CC(C)(C)NC(=O)O[C@@H](Cc1ccccc1)[C@H](O)CNC[C@@H](O)[C@H](Cc1ccccc1)NC(=O)[C@](C)(O)C(C)(C)C` [Example 3, [1S-[1R*, 2S*[2S*, 3R* (S*)]]]-(1,1-Dimethylethyl)carbamic acid, 3-[[3-[(2-hydroxy-2,3,3-trimethyl-1-oxobutyl)amino]-2-hydroxy-4-phenylbutyl]amino]-2-hydroxy-1-(phenylmethyl)propyl ester], the IC50 in the assay on HIV (CEM Cells) worked out at 100 nM. Besides, at HIV protease, the inhibition at 10 µM amounted to 98%.

As to `CC(C)(C)NC(=O)O[C@@H](Cc1ccccc1)[C@H](O)CNC[C@@H](O)[C@H](Cc1ccccc1)NC(=O)OC(C)(C)C` [Example 1, [1S-[1R*,2S*(2S*,3R*)]]-[3-[[3-[[[(1,1-Dimethylethyl)amino]carbonyl]oxy]-2-hydroxy-4-phenylbutyl]amino]-2-hydroxy-1-(phenylmethyl)-propyl]carbamic acid, 1,1-dimethyl ester], in the assay with HIV (CEM Cells), half-maximal inhibition (IC50) was put at 460 nM. Also, at 10 µM the inhibition against HIV protease was 98%.

The compound `CC(C)(C)NC(=O)O[C@@H](Cc1ccccc1)[C@H](O)CNC[C@@H](O)[C@H](Cc1ccc(OCC(=O)N2CCOCC2)cc1)NC(=O)OC(C)(C)C` [Example 2, [1S-[1R*,2S* (2S*,3R*)]]-[3-[[3-[[[(1,1-Dimethylethyl)amino]carbonyl]oxy]-2-hydroxy-4-phenylbutyl]amino]-2-hydroxy-1-[[4-[2-(morpholinyl)-2-oxoethoxy]phenyl]methyl]propyl]carbamic acid, 1,1-dimethylethyl ester] returned an IC50 in the assay on HIV (CEM Cells) of 200 nM. On HIV protease, this compound yielded an inhibition at 10 µM of 90%.

A word on the IC50: it is the concentration that inhibits the measured activity by half. Read a high IC50 as lower potency. A word on the inhibition: it is the drop in the measured response relative to a control, in per cent.
